Literature values, collected in patent US8551986B2, “Treatment of sequelae of psychiatric disorders” (The McLean Hospital Corporation, priority 2005, dated 2013).

Conditions: human studies, all but one study; cited from earlier work

For `C=C1CC[C@@]2(O)[C@H]3Cc4ccc(O)c5c4[C@@]2(CCN3CC2CC2)[C@H]1O5` [nalmefene], the caloric intake is given as “significant decreases”.

For `O=C1CC[C@@]2(O)[C@H]3Cc4ccc(O)c5c4[C@@]2(CCN3CC2CC2)[C@H]1O5` [naltrexone], the caloric intake is listed as “significant decreases”.
